# According to US10844032B2, “Substituted benzofuran, benzothiophene and indole Mcl-1 inhibitors” (Vanderbilt University, priority 2012, dated 2020):
# Target: recombinant Mcl-1 (residues 172-327) (Homo sapiens (Human), UniProt Q07820)
# Assay: Bak peptide fluorescence polarization anisotropy competition assay, Mcl-1
# Type: binding
# Conditions: Table 2, Ki range; FITC-Bak peptide 10 nM, Mcl-1 14 nM; read-out: Ki for inhibition of Mcl-1
# Sequence of recombinant Mcl-1 (residues 172-327) (Q07820 172-327): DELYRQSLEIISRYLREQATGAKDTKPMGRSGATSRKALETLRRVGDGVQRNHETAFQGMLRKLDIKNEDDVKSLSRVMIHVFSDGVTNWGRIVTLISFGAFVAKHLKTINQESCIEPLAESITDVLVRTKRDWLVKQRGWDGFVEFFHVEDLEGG
row,Ki,Structure (SMILES)
1,≤ 0.1 µM,"Cc1cc(OCCCc2c(C(=O)NS(=O)(=O)CCNC(=O)c3cc(C)n(-c4ccc(F)cc4)c3C)[nH]c3ccccc23)cc(C)c1Cl [Example 279, 3-(3-(4-chloro-3,5-dimethylphenoxy)propyl)-N-((2-(1-(4-fluorophenyl)-2,5-dimethyl-1H-pyrrole-3-carboxamido)ethyl)sulfonyl)-1H-indole-2-carboxamide]"
2,≤ 0.1 µM,"Cc1cc(OCCCc2c(C(=O)NS(=O)(=O)CCNC(=O)c3ccco3)[nH]c3cc(Cl)ccc23)cc(C)c1Cl [Example 232, 6-chloro-3-(3-(4-chloro-3,5-dimethylphenoxy)propyl)-N-((2-(furan-2-carboxamido)ethyl)sulfonyl)-1H-indole-2-carboxamide]"
3,≤ 0.1 µM,"COCc1nn(C)c(C)c1-c1cccc2c(CCCOc3cc(C)c(Cl)c(C)c3)c(C(=O)NS(=O)(=O)c3ccccc3)[nH]c12 [Example 130, 3-(3-(4-chloro-3,5-dimethylphenoxy)propyl)-7-(3-(methoxymethyl)-1,5-dimethyl-1H-pyrazol-4-yl)-N-(phenylsulfonyl)-1H-indole-2-carboxamide]"

# The next lines start with the molecule.
row,Structure (SMILES),Ki
1,"CCn1nccc1-c1cccc2c(CCCOc3cc(C)c(Cl)c(C)c3)c(C(=O)NS(=O)(=O)c3ccccc3)[nH]c12 [Example 302, 3-(3-(4-chloro-3,5-dimethylphenoxy)propyl)-7-(1-ethyl-1H-pyrazol-5-yl)-N-(phenylsulfonyl)-1H-indole-2-carboxamide]",≤ 0.1 µM
2,"Cc1cc(OCCCc2c(C(=O)NS(=O)(=O)c3ccccc3)[nH]c3c(-c4cnccc4C(F)(F)F)cccc23)cc(C)c1Cl [Example 103, 3-(3-(4-chloro-3,5-dimethylphenoxy)propyl)-N-(phenylsulfonyl)-7-(4-(trifluoromethyl)pyridin-3-yl)-1H-indole-2-carboxamide]",≤ 0.1 µM
3,"Cc1cc(OCCCc2c(C(=O)NS(=O)(=O)c3ccccc3)[nH]c3c(-c4cnn(C)c4)c(Cl)ccc23)cc(C)c1Cl [Example 121, 6-chloro-3-(3-(4-chloro-3,5-dimethylphenoxy)propyl)-7-(1-methyl-1H-pyrazol-4-yl)-N-(phenylsulfonyl)-1H-indole-2-carboxamide]",≤ 0.1 µM
4,"Cc1cc(OCCCc2c(C(=O)NS(=O)(=O)c3ccccc3)[nH]c3c(-c4ncccc4C(F)(F)F)cccc23)cc(C)c1Cl [Example 102, 3-(3-(4-chloro-3,5-dimethylphenoxy)propyl)-N-(phenylsulfonyl)-7-(3-(trifluoromethyl)pyridin-2-yl)-1H-indole-2-carboxamide]",≤ 0.1 µM

# Same assay, conditions: read-out: Ki for inhibition of Mcl-1
row,Ki,Structure (SMILES)
1,1 to 9.99 µM,"Cc1cc(OCCCc2c(C(=O)NS(=O)(=O)c3cccc4ccccc34)oc3ccccc23)cc(C)c1Cl [Example 28, 3-(3-(4-chloro-3,5-dimethylphenoxy)propyl)-N-(naphthalen-1-ylsulfonyl)benzofuran-2-carboxamide]"
2,0.301 to 0.5 µM,"CS(=O)(=O)NC(=O)c1[nH]c2cc(C(F)(F)F)ccc2c1CCCOc1cccc2ccccc12 [Example 79, N-(methylsulfonyl)-3-(3-(naphthalen-1-yloxy)propyl)-6-(trifluoromethyl)-1H-indole-2-carboxamide]"
3,1 to 9.99 µM,"Cc1cc(OCCCc2c(C(=O)NS(=O)(=O)CCNC(=O)c3cccnc3)[nH]c3ccccc23)cc(C)c1Cl [Example 155, 3-(3-(4-chloro-3,5-dimethylphenoxy)propyl)-N-((2-(nicotinamido)ethyl)sulfonyl)-1H-indole-2-carboxamide]"
4,1 to 9.99 µM,"O=C(O)c1sc2ccccc2c1CCCc1cccc2ccccc12 [Example 63, 3-(3-(naphthalen-1-yl)propyl)benzo[b]thiophene-2-carboxylic acid]"
5,1 to 9.99 µM,"CCc1cc(OCCCc2c(C(=O)NS(C)(=O)=O)[nH]c3ccccc23)ccc1Cl [Example 44, 3-(3-(4-chloro-3-ethylphenoxy)propyl)-N-(methylsulfonyl)-1H-indole-2-carboxamide]"
6,1 to 9.99 µM,"COc1cccc(OCCCc2c(C(=O)NS(C)(=O)=O)[nH]c3cc(Cl)ccc23)c1 [Example 108, 6-chloro-3-(3-(3-methoxyphenoxy)propyl)-N-(methylsulfonyl)-1H-indole-2-carboxamide]"
7,0.101 to 0.299 µM,"Cc1cc(OCCCc2c(C(=O)NS(=O)(=O)CCNC(=O)c3ccccn3)[nH]c3ccccc23)cc(C)c1Cl [Example 190, 3-(3-(4-chloro-3,5-dimethylphenoxy)propyl)-N-((2-(picolinamido)ethyl)sulfonyl)-1H-indole-2-carboxamide]"
8,10 to 50 µM,"O=C(O)c1oc2ccccc2c1CCc1cccc2ccccc12 [Example 23, 3-(2-(naphthalen-1-yl)ethyl)benzofuran-2-carboxylic acid]"
9,0.301 to 0.5 µM,"Cc1cc(OCCCc2c(C(=O)NS(=O)(=O)CCNC(=O)c3ccccc3F)[nH]c3ccccc23)cc(C)c1Cl [Example 160, 3-(3-(4-chloro-3,5-dimethylphenoxy)propyl)-N-((2-(2-fluorobenzamido)ethyl)sulfonyl)-1H-indole-2-carboxamide]"
10,1 to 9.99 µM,"Cc1cc(OCCCc2c(C(=O)NS(=O)(=O)c3ccc4ccccc4c3)oc3ccccc23)cc(C)c1Cl [Example 27, 3-(3-(4-chloro-3,5-dimethylphenoxy)propyl)-N-(naphthalen-2-ylsulfonyl)benzofuran-2-carboxamide]"

# Further lines, the molecule ahead of its results:
row,Structure (SMILES),Ki
1,"Cc1cc(OCCCc2c(C(=O)NS(=O)(=O)Cc3ccccc3)[nH]c3cc(Cl)ccc23)cc(C)c1Cl [Example 66, N-(benzylsulfonyl)-6-chloro-3-(3-(4-chloro-3,5-dimethylphenoxy)propyl)-1H-indole-2-carboxamide]",0.101 to 0.299 µM
2,"CS(=O)(=O)NC(=O)c1[nH]c2cc(Cl)ccc2c1CCCOc1ccccc1Br [Example 107, 3-(3-(2-bromophenoxy)propyl)-6-chloro-N-(methylsulfonyl)-1H-indole-2-carboxamide]",1 to 9.99 µM
3,"COCc1nn(C)c(C)c1-c1cccc2c(CCCOc3cc(C)c(Cl)c(C)c3)c(C(=O)NS(=O)(=O)c3ccccc3)n(Cc3cccnc3)c12 [Example 128, 3-(3-(4-Chloro-3,5-dimethylphenoxy)propyl)-7-(3-(methoxymethyl)-1,5-dimethyl-1H-pyrazol-4-yl)-N-(phenylsulfonyl)-1-(pyridin-3-ylmethyl)-1H-indole-2-carboxamide]",0.101 to 0.299 µM
4,"Cc1cc(OCCCc2c(C(=O)NS(=O)(=O)c3ccc(C(=O)N4CCOCC4)o3)[nH]c3cc(Cl)ccc23)cc(C)c1Cl [Example 262, 6-chloro-3-(3-(4-chloro-3,5-dimethylphenoxy)propyl)-N-((5-(morpholine-4-carbonyl)furan-2-yl)sulfonyl)-1H-indole-2-carboxamide]",0.101 to 0.299 µM
5,"Cc1cc(OCCCc2c(C(=O)NS(=O)(=O)CCNC(=O)c3cc(C)n(Cc4ccccc4)c3C)[nH]c3ccccc23)cc(C)c1Cl [Example 194, N-((2-(1-benzyl-2,5-dimethyl-1H-pyrrole-3-carboxamido)ethyl)sulfonyl)-3-(3-(4-chloro-3,5-dimethylphenoxy)propyl)-1H-indole-2-carboxamide]",0.101 to 0.299 µM
6,"Cc1cc(OCCCc2c(C(=O)NS(C)(=O)=O)sc3ccccc23)cc(C)c1Cl [Example 68, 3-(3-(4-chloro-3,5-dimethylphenoxy)propyl)-N-(methylsulfonyl)benzo[b]thiophene-2-carboxamide]",1 to 9.99 µM
7,"Cc1cc(OCCCc2c(C(=O)NS(=O)(=O)c3cccc(Br)c3)[nH]c3cc(Cl)ccc23)cc(C)c1Cl [Example 218, N-((3-bromophenyl)sulfonyl)-6-chloro-3-(3-(4-chloro-3,5-dimethylphenoxy)propyl)-1H-indole-2-carboxamide]",0.101 to 0.299 µM
8,"Cc1cc(OCCCc2c(C(=O)NS(=O)(=O)CCN3C(=O)c4ccccc4C3=O)[nH]c3ccccc23)cc(C)c1Cl [Example 197, 3-(3-(4-chloro-3,5-dimethylphenoxy)propyl)-N-((2-(1,3-dioxoisoindolin-2-yl)ethyl)sulfonyl)-1H-indole-2-carboxamide]",0.501 to 0.999 µM
9,"Cc1ccc(OCCCc2c(C(=O)NS(C)(=O)=O)[nH]c3ccccc23)cc1 [Example 33, N-(methylsulfonyl)-3-(3-(p-tolyloxy)propyl)-1H-indole-2-carboxamide]",10 to 50 µM
10,"Cc1cc(OCCCc2c(C(=O)NS(C)(=O)=O)sc3cc(Cl)ccc23)cc(C)c1Cl [Example 72, 6-chloro-3-(3-(4-chloro-3,5-dimethylphenoxy)propyl)-N-(methylsulfonyl)benzo[b]thiophene-2-carboxamide]",1 to 9.99 µM
11,"Cc1cc(OCCCc2c(C(=O)NS(=O)(=O)CCNC(=O)c3cn[nH]c3)[nH]c3ccccc23)cc(C)c1Cl [Example 182, N-((2-(1H-pyrazole-4-carboxamido)ethyl)sulfonyl)-3-(3-(4-chloro-3,5-dimethylphenoxy)propyl)-1H-indole-2-carboxamide]",1 to 9.99 µM
12,"Cc1cc(OCCCc2c(C(=O)NS(=O)(=O)CCNC(=O)c3ccc(Oc4ccccc4)cc3)[nH]c3ccccc23)cc(C)c1Cl [Example 166, 3-(3-(4-chloro-3,5-dimethylphenoxy)propyl)-N-((2-(4-phenoxybenzamido)ethyl)sulfonyl)-1H-indole-2-carboxamide]",0.301 to 0.5 µM
13,"COc1ccc(S(=O)(=O)NC(=O)c2[nH]c3ccccc3c2CCCOc2cc(C)c(Cl)c(C)c2)c(OC)c1 [Example 138, 3-(3-(4-chloro-3,5-dimethylphenoxy)propyl)-N-((2,4-dimethoxyphenyl)sulfonyl)-1H-indole-2-carboxamide]",0.301 to 0.5 µM
14,"O=C(O)c1oc2ccccc2c1CCCc1cccc2ccccc12 [Example 22, 3-(3-(naphthalen-1-yl)propyl)benzofuran-2-carboxylic acid]",10 to 50 µM
15,"CS(=O)(=O)NC(=O)c1[nH]c2ccccc2c1CCCOc1cccc2ccccc12 [Example 19, N-(methylsulfonyl)-3-(3-(naphthalen-1-yloxy)propyl)-1H-indole-2-carboxamide]",1 to 9.99 µM
16,"Cc1cc(OCCCc2c(C(=O)NS(=O)(=O)c3ccc(C(=O)N4CCOCC4)n3C)[nH]c3cc(Cl)ccc23)cc(C)c1Cl [Example 267, 6-chloro-3-(3-(4-chloro-3,5-dimethylphenoxy)propyl)-N-((1-methyl-5-(morpholine-4-carbonyl)-1H-pyrrol-2-yl)sulfonyl)-1H-indole-2-carboxamide]",0.101 to 0.299 µM
